Results taken from patent US9049863B2, “Substituted (3R,4R)-4-cyan-3,4-diphenylbutanoates, method for the production thereof and use thereof as herbicides and plant growth regulators” (Bayer Intellectual Property GmbH, priority 2011, dated 2015).

What was measured:
Type in all cases: in vivo
Alopecurus myosuroides = assay: Herbicidal action and crop plant compatibility, pre-emergence (3.2); settings: 80 g/ha, about 4 weeks
Description: (§1) 3.2 In further trials in the greenhouse, seeds of crop plants and seeds of harmful plants are placed in pots in sandy loam soil, covered with earth and cultivated under good growth conditions. The compounds (I) according to the invention, formulated in the form of wettable powders (WP), are then applied as aqueous suspension or emulsion at a water application rate of 300 l/ha (converted) with the addition of 0.2% of wetting agent to the surface of the covering soil. After the test plants have been kept in the greenhouse under optimum growth conditions for about 4 weeks, the activity of the preparations is rated visually in comparison to untreated controls in percent (%): For example, 100% activity=the plants have died, 50% herbicidal activity or damage=the plants have been reduced by 50% or the plant mass has been reduced by 50%, 0% activity=like control plants.

Setaria viridis [1] = assay: as above; settings: 80 g/ha, about 4 weeks
Description: as §1

Echinochloa crus-galli [2] = assay: as above; settings: 80 g/ha, about 4 weeks
Description: as §1

Polygonum convolvulus [3] = assay: as above; settings: 80 g/ha, about 4 weeks
Description: as §1

Amaranthus retroflexus = assay: as above; settings: 80 g/ha, about 4 weeks
Description: as §1

Viola tricolor [4] = assay: as above; settings: 80 g/ha, about 4 weeks
Description: as §1

Avena fatua [5] = assay: as above; settings: 80 g/ha, about 4 weeks
Description: as §1

Lolium multiflorum = assay: as above; settings: 80 g/ha, about 4 weeks
Description: as §1

Veronica persica [6] = assay: as above; settings: 80 g/ha, about 4 weeks
Description: as §1

[7] = system: a plurality of harmful plants; assay: Herbicidal pre-emergence action; settings: 320 g or less of active substance per hectare
Description: Seeds of monocotyledonous and dicotyledonous weed plants and crop plants are placed in wood-fiber pots in sandy loam and covered with soil. The compounds (I) according to the invention, formulated in the form of wettable powders (WP), are then applied as aqueous suspension or emulsion at a water application rate of 600 l/ha (converted) with the addition of 0.2% of wetting agent to the surface of the covering soil.
After the treatment, the pots are placed in a greenhouse and kept under good growth conditions for the test plants. After about 3 weeks, the effect of the preparations is scored visually in comparison with untreated controls as percentages. For example, 100% activity=the plants have died, 50% herbicidal activity or damage=the plants have been reduced by 50% or the plant mass has been reduced by 50%, 0% activity=like control plants.

Setaria viridis [8] = assay: Herbicidal action and crop plant compatibility, post-emergence (3.3); settings: 80 g/ha, 4 weeks after the treatment
Experimental: (§2) 3.3 In further trials in the greenhouse, seeds of crop plants and seeds of harmful plants are placed in pots in sandy loam soil, covered with earth and cultivated under good growth conditions. The test plants are treated at the 2-3-leaf stage, where the compounds (I) according to the invention, formulated in the form of wettable powders (WP), are applied by spraying as aqueous suspension or emulsion at a water application rate of […] (converted) with the addition of 0.2% of wetting agent to the green parts of the plants. 4 weeks after the treatment and after the test plants have been kept in the greenhouse under optimum growth conditions, the activity of the preparations is rated visually in comparison to untreated controls in percent (%): For example, 100% activity=the plants have died, 50% herbicidal activity or damage=the plants have been reduced by 50% or the plant mass has been reduced by 50%, 0% activity=like control plants.

Echinochloa crus-galli [9] = assay: as above; settings: 80 g/ha, 4 weeks after the treatment
Experimental: as §2

Polygonum convolvulus [10] = assay: as above; settings: 80 g/ha, 4 weeks after the treatment
Experimental: as §2

oilseed rape = assay: as above; settings: 80 g/ha, 4 weeks after the treatment
Experimental: as §2

wheat = assay: as above; settings: 80 g/ha, 4 weeks after the treatment
Experimental: as §2

Viola tricolor [11] = assay: as above; settings: 80 g/ha, 4 weeks after the treatment
Experimental: as §2

Avena fatua [12] = assay: as above; settings: 80 g/ha, 4 weeks after the treatment
Experimental: as §2

Veronica persica [13] = assay: as above; settings: 80 g/ha, 4 weeks after the treatment
Experimental: as §2

Row | Structure (SMILES) | herbicidal activity against Alopecurus myosuroides (Alopecurus myosuroides) [%] | herbicidal activity against Setaria viridis (Setaria viridis [1]) [%] | herbicidal activity against Echinochloa crus-galli (Echinochloa crus-galli [2]) [%] | herbicidal activity against Polygonum convolvulus (Polygonum convolvulus [3]) [%] | herbicidal activity against Amaranthus retroflexus (Amaranthus retroflexus) [%] | herbicidal activity against Viola tricolor (Viola tricolor [4]) [%] | herbicidal activity against Avena fatua (Avena fatua [5]) [%] | herbicidal activity against Lolium multiflorum (Lolium multiflorum) [%] | herbicidal activity against Veronica persica (Veronica persica [6]) [%] | herbicidal activity against a plurality of harmful plants [7] | herbicidal activity against Setaria virides (Setaria viridis [8]) [%] | herbicidal activity against Echinochloa crus-galli (Echinochloa crus-galli [9]) [%] | herbicidal activity against Polygonum convolvulus (Polygonum convolvulus [10]) [%] | selectivity in oilseed rape (damage) (oilseed rape) [%] | selectivity in wheat (damage) (wheat) | herbicidal activity against Viola tricolor (Viola tricolor [11]) [%] | herbicidal activity against Avena fatua (Avena fatua [12]) [%] | herbicidal activity against Veronica persica (Veronica persica [13]) [%]
1 | COC(=O)C[C@@H](c1ccc(Cl)cc1)[C@@H](C#N)c1cccc(F)c1 [Example 1, methyl (3R,4R)-3-(4-chlorophenyl)-4-cyano-4-(3-fluorophenyl)butanoate] | 80 to 100 | 80 to 100 | 80 to 100 | 80 to 100 | 80 to 100 | 80 to 100 | 80 to 100 | 80 to 100 | 80 to 100 | good herbicidal activity |  |  |  |  |  |  |  | 
2 | CCCCOC(=O)C[C@@H](c1cccc(F)c1)[C@@H](C#N)c1ccc(F)c(F)c1 [Example 86] |  |  |  |  |  |  |  |  |  | good herbicidal activity | 80 | 80 | 80 | 0 | up to 10% | 80 | 90 | 70
